These results are taken from patent US20250066350A1, “AROMATIC HETEROCYCLE-SUBSTITUTED COMPOUNDS, AND PREPARATION METHOD THEREFOR AND USE THEREOF” (Innovstone Therapeutics Limited, priority 2021, published 2025).

One assay deals with ATR enzyme (Homo sapiens (Human), UniProt Q13535). In words: Inhibitory effect on ATR enzyme (HTRF, phospho-P53). In kind it is biochemical. The following applies: 90 minutes incubation, 150 nM ATP final; read-out: IC50 for ATR enzyme inhibition. How it is done: Test Example 1. Inhibitory Effect of Compounds of the Present Invention on ATR Enzyme
Sequence of ATR enzyme (Q13535 whole entry): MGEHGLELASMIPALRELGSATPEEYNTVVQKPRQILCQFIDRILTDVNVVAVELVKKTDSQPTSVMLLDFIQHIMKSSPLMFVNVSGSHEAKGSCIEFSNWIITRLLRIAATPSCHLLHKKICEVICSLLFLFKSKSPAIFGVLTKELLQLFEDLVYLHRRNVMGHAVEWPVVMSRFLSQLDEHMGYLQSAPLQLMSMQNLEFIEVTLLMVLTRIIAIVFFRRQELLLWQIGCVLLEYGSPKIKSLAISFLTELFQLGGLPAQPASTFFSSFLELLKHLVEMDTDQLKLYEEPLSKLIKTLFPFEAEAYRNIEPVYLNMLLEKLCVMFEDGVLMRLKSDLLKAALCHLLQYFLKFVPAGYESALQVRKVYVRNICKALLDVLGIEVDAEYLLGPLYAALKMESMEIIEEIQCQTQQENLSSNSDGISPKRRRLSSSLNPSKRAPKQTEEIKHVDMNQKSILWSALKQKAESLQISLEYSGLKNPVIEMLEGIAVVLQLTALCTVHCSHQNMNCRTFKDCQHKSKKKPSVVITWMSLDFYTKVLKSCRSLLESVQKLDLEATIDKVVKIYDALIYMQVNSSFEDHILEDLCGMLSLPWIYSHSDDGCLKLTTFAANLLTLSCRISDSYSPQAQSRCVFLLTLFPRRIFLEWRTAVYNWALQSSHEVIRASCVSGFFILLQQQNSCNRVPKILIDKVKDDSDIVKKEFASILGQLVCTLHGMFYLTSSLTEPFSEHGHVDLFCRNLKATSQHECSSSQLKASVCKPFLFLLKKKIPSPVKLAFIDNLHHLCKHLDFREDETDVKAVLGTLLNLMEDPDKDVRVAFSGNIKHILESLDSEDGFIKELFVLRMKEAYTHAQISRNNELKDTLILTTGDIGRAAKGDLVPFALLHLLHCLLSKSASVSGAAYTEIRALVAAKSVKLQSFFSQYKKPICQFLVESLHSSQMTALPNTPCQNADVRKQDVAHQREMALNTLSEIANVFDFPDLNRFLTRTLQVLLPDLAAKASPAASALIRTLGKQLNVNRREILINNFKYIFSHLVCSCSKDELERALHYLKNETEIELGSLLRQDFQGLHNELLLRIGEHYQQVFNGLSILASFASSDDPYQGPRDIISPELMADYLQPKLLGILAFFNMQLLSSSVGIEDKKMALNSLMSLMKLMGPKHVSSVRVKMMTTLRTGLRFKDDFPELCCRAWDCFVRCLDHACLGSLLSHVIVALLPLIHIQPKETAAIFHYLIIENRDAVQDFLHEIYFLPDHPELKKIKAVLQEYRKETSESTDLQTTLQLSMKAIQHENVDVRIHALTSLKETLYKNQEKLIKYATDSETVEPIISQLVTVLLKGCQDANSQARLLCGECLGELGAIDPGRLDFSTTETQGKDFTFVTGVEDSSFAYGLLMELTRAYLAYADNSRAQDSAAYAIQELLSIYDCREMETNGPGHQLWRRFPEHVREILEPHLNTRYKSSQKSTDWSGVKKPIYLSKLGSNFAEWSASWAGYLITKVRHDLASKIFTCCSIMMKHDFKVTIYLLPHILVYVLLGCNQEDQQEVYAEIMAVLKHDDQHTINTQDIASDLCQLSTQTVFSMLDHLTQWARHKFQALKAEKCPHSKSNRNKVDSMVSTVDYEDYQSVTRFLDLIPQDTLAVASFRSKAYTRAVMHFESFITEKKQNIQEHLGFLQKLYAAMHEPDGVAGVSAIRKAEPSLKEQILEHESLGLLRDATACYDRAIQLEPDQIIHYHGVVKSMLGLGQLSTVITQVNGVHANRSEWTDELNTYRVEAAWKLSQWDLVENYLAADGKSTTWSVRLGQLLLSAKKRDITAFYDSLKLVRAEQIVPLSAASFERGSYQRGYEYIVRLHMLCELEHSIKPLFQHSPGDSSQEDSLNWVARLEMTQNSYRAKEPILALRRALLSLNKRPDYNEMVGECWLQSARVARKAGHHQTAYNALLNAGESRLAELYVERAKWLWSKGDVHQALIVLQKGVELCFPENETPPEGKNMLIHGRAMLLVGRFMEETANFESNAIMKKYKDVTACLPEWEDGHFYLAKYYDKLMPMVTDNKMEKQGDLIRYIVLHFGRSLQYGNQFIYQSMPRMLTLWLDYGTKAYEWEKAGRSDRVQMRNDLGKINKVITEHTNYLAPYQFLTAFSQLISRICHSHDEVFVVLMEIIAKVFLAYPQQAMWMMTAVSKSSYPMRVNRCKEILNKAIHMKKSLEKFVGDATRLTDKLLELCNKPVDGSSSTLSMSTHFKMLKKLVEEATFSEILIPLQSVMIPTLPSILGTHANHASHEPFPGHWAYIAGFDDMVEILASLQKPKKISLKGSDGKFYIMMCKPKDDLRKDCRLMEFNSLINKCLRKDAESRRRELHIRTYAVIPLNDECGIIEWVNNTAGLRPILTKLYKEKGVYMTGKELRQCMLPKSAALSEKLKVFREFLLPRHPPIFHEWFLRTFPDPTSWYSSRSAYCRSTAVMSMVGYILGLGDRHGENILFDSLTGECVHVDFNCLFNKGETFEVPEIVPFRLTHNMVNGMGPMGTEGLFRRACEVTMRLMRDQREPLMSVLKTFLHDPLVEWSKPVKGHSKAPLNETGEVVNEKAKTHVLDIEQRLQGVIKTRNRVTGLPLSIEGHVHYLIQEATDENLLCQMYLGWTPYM
Sequence of ATR enzyme (Q8WXE1 whole entry partner): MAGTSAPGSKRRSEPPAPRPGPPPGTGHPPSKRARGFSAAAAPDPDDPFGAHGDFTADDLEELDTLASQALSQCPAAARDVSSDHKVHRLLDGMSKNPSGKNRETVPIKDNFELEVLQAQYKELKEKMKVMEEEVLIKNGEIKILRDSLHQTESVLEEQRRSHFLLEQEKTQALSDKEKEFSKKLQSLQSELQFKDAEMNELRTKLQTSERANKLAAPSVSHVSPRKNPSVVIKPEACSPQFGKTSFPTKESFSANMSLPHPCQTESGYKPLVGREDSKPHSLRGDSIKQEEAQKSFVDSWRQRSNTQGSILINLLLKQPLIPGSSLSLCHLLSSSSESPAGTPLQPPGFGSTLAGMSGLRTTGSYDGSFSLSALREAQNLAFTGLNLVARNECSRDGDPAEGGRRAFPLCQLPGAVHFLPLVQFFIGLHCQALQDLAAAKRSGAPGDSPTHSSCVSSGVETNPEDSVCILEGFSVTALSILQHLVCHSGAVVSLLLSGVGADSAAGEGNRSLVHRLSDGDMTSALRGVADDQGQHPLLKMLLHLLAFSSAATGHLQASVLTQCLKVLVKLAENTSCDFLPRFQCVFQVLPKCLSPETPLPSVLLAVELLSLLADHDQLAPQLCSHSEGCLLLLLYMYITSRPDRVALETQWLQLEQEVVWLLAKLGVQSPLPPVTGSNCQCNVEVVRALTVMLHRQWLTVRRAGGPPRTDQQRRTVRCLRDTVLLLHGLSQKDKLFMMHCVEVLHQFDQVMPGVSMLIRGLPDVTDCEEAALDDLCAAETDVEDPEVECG
The following method is used to determine the inhibitory effect of the compounds of the present invention on the ATR enzyme. The experimental method is briefly described as follows:
1. ATR enzyme (Eurofins Pharma Discovery Services, 14-953M)
2. GST-tagged P53 protein (Eurofins Pharma Discovery Services, 14-952M)
15 nM ATR enzyme, 80 nM P53 protein, 300 nM ATP (the final concentrations were 40 nM and 150 nM, respectively), and small molecule compounds of various concentrations (the final concentrations (nM) of the ten points were 2985.0, 895.5, 298.5, 110.56, 33.17, 11.06, 4.09, 1.23, 0.41 and 0.15, respectively, and the final dimethyl sulfoxide concentration was 0.498%) were mixed and incubated at room temperature for 90 minutes. 10 μL of 2× cocktail buffer was added to the mixture of ATR, compound and substrate in the assay plate (anti-phospho-p53-Eu and anti-GST-d2 were diluted in the assay buffer). The resulting mixture was centrifuged at 1000 rpm for 30 seconds, and incubated overnight at 4° C. in the dark (a total of 20 μl in each well). The FRET signal (endpoint) was measured in the Envision instrument (HTRF 665/612 ratio was calculated at 665 nm emission and 612 nm emission). Data were processed using GraphPad software.
The inhibitory activity of the compounds of the present invention on the ATR enzyme can be determined by the test described above, and the measured IC50 values are shown in Table 1.
For orientation: TR-FRET usually uses a lanthanide donor and a delayed reading to cut background.

Another assay relates to SNU-601 cells. In words: SNU-601 cell proliferation experiment (CellTiter-Glo, intracellular ATP). Conditions: SNU-601 human gastric cancer cells, 5 days, read-out: IC50 for inhibition of SNU-601 cell proliferation. In kind it is cell-based. How it is done:
The following method is used to evaluate the inhibitory effect of the compounds of the present disclosure on SNU-601 cell proliferation according to the IC50 values by means of detecting the intracellular ATP content. The experimental method is briefly described as follows:
1. SNU-601, human gastric cancer tumor cells (Co-bioer, CBP60507)
SNU-601 cells were cultured in RPMI 1640 medium containing 10% FBS and passaged 2 to 3 times a week at a split ratio of 1:5 or 1:10. During passage, the cells were trypsinized and transferred to a centrifuge tube. The tube was centrifuged at 1000 rpm for 5 minutes, the supernatant medium was discarded, and fresh medium was added to resuspend the cells. 195 μL of cell suspension at a density of 5.128×10^3 cells/mL was added to a 96-well cell culture plate, and 200 μL of complete medium only was added to the periphery wells of the 96-well plate. The culture plate was incubated in an incubator for 24 hours (37° C., 5% CO2).
The sample to be tested was diluted to 2 mM with DMSO, diluted 3-fold serially to 10 concentrations. Blank and control wells were set. 10 μL of the solution containing the compound to be tested prepared in gradient concentrations was added to 50 μL of fresh medium. 5 μL of the above culture medium solution containing the compound was added to the culture plate. The culture plate was incubated in an incubator for 5 days (37° C., 5% CO2). 50 μL of CellTiter-Glo reagent was added to each well of the 96-well cell culture plate after discarding 100 μL/well, and the plate was shaken at room temperature in the dark for 10 min. The chemiluminescent signal values were read in PHERAstar, and data were processed using GraphPad software.
The inhibitory effect of the compounds of the present invention on SNU-601 cell proliferation can be determined by the test described above, and the measured IC50 values are shown in Table 3.
In general terms: ATP-based viability assays read luminescence as a measure of living cells.

Each structure is given as a SMILES string. Where two headings read alike, the source gives them in different places.

Take `C[C@@H]1COCCN1c1cc(C#CC2(O)CCN(c3cccc(F)c3)CC2)c2cnn(-c3ccn[nH]3)c2n1` [Compound 12, (R)-1-(3-fluorophenyl)-4-((6-(3-methylmorpholinyl)-1-(1H-pyrazolyl-5-yl)-1H-pyrazolyl[3,4-b]pyridin-4-yl)ethynyl)piperidin-4-ol]: the IC50 at ATR enzyme was 10 to 50 nM. As to `C[C@@H]1COCCN1c1cc(C#CC2(O)CCC3(CCOCC3)CC2)c2cnn(-c3ccn[nH]3)c2n1` [Compound 14, (R)-9-((6-(3-methylmorpholinyl)-1-(1H-pyrazol-5-yl)-1H-pyrazole[3,4-b]pyridin-4-yl)ethynyl)-3-oxaspiro[5.5]undecan-9-ol], the IC50 on ATR enzyme is 10 to 50 nM. On the same count and under the same terms, in the case of `C#Cc1cc(N2CCOC[C@H]2C)nc2c1cnn2-c1cc[nH]n1` [Example 17] it was 10 to 50 nM; in that of `C[C@@H]1COCCN1c1cc(C#CCN(C)C)c2cnn(-c3cc[nH]n3)c2n1` [Example 18, (R)-N, N-Dimethyl-3-(6-(3-methylmorpholine)-1-(1H-pyrazol-3-yl)-1H-pyrazoline[3,4-b]pyridin-4-yl)propyl-2-yn-1-amine], 10 to 50 nM; in that of `C[C@@H]1COCCN1c1cc(-c2ccc(N3C(=O)CCCC3CO)cc2)c2cnn(-c3cc[nH]n3)c2n1` (stereo partly drawn) [Example 60], at most 10 nM. As for `C[C@@H]1COCCN1c1cc(-c2ccc(N3CC4CCC(O4)C3=O)cc2)c2cnn(-c3cc[nH]n3)c2n1` (stereo partly drawn) [Example 65], the IC50 with SNU-601 cells (120 h) lay in the range of 10 to 100 nM.

For `C[C@@H]1COCCN1c1cc(C#Cc2ccnc3[nH]ccc23)c2cnn(-c3cc[nH]n3)c2n1` [Example 77], the IC50 on ATR enzyme was in the range of 10 to 50 nM.

Consider `C[C@@H]1COCCN1c1cc(C#Cc2c[nH]cn2)c2cnn(-c3cc[nH]n3)c2n1` [Example 78], for which the IC50 on ATR enzyme was at most 10 nM. On to `CC(=O)N1CCC(C#Cc2cc(N3CCOC[C@H]3C)nc3c2cnn3-c2cc[nH]n2)C1` (stereo partly drawn) [Example 80], for which the IC50 on ATR enzyme was 10 to 50 nM. `C[C@@H]1COCCN1c1cc(C#CC2(C#N)CCCNC2)c2cnn(-c3cc[nH]n3)c2n1` (stereo partly drawn) [Example 82]: the IC50 in the assay on SNU-601 cells is 10 to 100 nM.

Take `C[C@@H]1COCCN1c1cc(C#CC2(O)COC2)c2cnn(-c3cc[nH]n3)c2n1` [Example 84]: on ATR enzyme, the IC50 was at most 10 nM.

`C[C@@H]1COCCN1c1cc(C#CC(=O)N2CC(O)C2)c2cnn(-c3cc[nH]n3)c2n1` [Example 86]: the IC50 on ATR enzyme was 10 to 50 nM.

For the compound `CCC(CC)C(=O)Nc1ccc(-c2cc(N3CCOC[C@H]3C)nc3c2cnn3-c2cc[nH]n2)cc1` [Example 151], in the assay with SNU-601 cells (120 h), the IC50 was 10 to 100 nM. In the case of `C[C@@H]1COCCN1c1cc(-c2ccc(NC(=O)CCO)cc2)c2cnn(-c3cc[nH]n3)c2n1` [Example 152], the IC50 at ATR enzyme is at most 10 nM.

On to `C[C@@H]1COCCN1c1cc(-c2ccc(N3CCCCCC3=O)cc2)c2cnn(-c3cc[nH]n3)c2n1` [Example 153], for which the IC50 in the assay with SNU-601 cells (120 h) fell in the range of 10 to 100 nM. On the same count and under the same terms, under `C[C@@H]1COCCN1c1cc(-c2ccc(NC(=O)C3CCOCC3)cc2)c2cnn(-c3cc[nH]n3)c2n1` [Example 155] stands 10 to 100 nM.

Turning to `C[C@@H]1COCCN1c1cc(-c2ccc(NC(=O)C3CNC3)cc2)c2cnn(-c3cc[nH]n3)c2n1` [Example 156], the IC50 at ATR enzyme is at most 10 nM. Consider `C[C@@H]1COCCN1c1cc(-c2ccc(NC(=O)c3ccccc3)cc2)c2cnn(-c3cc[nH]n3)c2n1` [Example 163], for which the IC50 in the assay on SNU-601 cells (120 h) was 10 to 100 nM. As for `C[C@@H]1COCCN1c1cc(-c2ccc(NC(=O)c3ccncn3)cc2)c2cnn(-c3cc[nH]n3)c2n1` [Example 165], the IC50 with SNU-601 cells (120 h) fell in the range of 10 to 100 nM. Still for that read-out and setting: under `C[C@@H]1COCCN1c1cc(-c2ccc(N3CCCCC3=O)nc2)c2cnn(-c3cc[nH]n3)c2n1` [Example 167] stands 10 to 100 nM.

With `Cc1cc(-c2cc(N3CCOC[C@H]3C)nc3c2cnn3-c2ccn[nH]2)cc(C)c1N(C)C(=O)c1ccncc1` [Example 184], the IC50 on ATR enzyme is at most 10 nM.

With `C[C@@H]1COCCN1c1cc(-c2ccc(N(C)C(=O)N3CCCC3)cc2F)c2cnn(-c3cc[nH]n3)c2n1` [Example 192], the IC50 on ATR enzyme is at most 10 nM.

Take `C#CC1CC=C(c2cc(N3CCOC[C@H]3C)nc3c2cnn3-c2cc[nH]n2)CC1` (stereo partly drawn) [Example 201]: at ATR enzyme, the IC50 is at most 10 nM.

For the compound `C#CC1CCC(c2cc(N3CCOC[C@H]3C)nc3c2cnn3-c2ccn[nH]2)CC1` (stereo partly drawn) [Example 202, (R)-4-(4-(4-ethynylcyclohexyl)-1-(1H-pyrazol-5-yl)-1H-pyrazolo[3,4-b]pyridin-6-yl)-3-methylmorpholine], the IC50 on ATR enzyme is at most 10 nM. For the compound `C[C@@H]1COCCN1c1cc(-c2ccc(N3CC4(CCN(Cc5ccccc5)C4)CC3=O)cc2)c2cnn(-c3cc[nH]n3)c2n1` (stereo partly drawn) [Example 203], the IC50 at ATR enzyme is at most 10 nM.

`C[C@@H]1COCCN1c1cc(C#CCN2CC3(CNC3)C2)c2cnn(-c3cc[nH]n3)c2n1` [Example 205]: at ATR enzyme, the IC50 lay within 10 to 50 nM. On the same count and under the same terms, in the case of `C[C@@H]1COCCN1c1cc(C#CC2CCCOC2)c2cnn(-c3ccn[nH]3)c2n1` (stereo partly drawn) [Example 210] it was at most 10 nM; in that of `C[C@@H]1COCCN1c1cc(-c2ccc(N3CCCC3=O)cc2)c2cnn(-c3cc[nH]n3)c2n1` [Example 212], at most 10 nM. Still for that read-out and setting: in the case of `CC(=O)Nc1ccccc1-c1cc(N2CCOC[C@H]2C)nc2c1cnn2-c1cc[nH]n1` [Example 220] it was 10 to 50 nM; in that of `C[C@@H]1COCCN1c1cc(-c2ccc(N(C)C(=O)N3CCCC3)cc2)c2cnn(-c3cc[nH]n3)c2n1` [Example 223], at most 10 nM. For the compound `C[C@@H]1COCCN1c1cc(-c2ccc3c(c2)CCCN3C(=O)c2cccnc2)c2cnn(-c3cc[nH]n3)c2n1` [Example 225], the IC50 on ATR enzyme was at most 10 nM.

Regarding `C[C@@H]1COCCN1c1cc(-c2ccc(N(C)C(=O)N3CCCC3)nc2)c2cnn(-c3cc[nH]n3)c2n1` [Example 227], the IC50 at ATR enzyme is 10 to 50 nM. Same read-out and setting: in the case of `C[C@@H]1COCCN1c1cc(-c2ccc(NC(=O)N3CCCCC3)cc2)c2cnn(-c3cc[nH]n3)c2n1` [Example 229] it was at most 10 nM. Regarding `C[C@@H]1COCCN1c1cc(-c2ccc(N(C)C(=O)N3CCCCC3)cc2)c2cnn(-c3cc[nH]n3)c2n1` [Example 230], the IC50 on ATR enzyme lay in the range of 10 to 50 nM. Turning to `C[C@@H]1COCCN1c1cc(-c2ccc(NC(=O)NC3CC4CCC(C3)N4)cc2)c2cnn(-c3cc[nH]n3)c2n1` (stereo partly drawn) [Example 231], the IC50 on ATR enzyme is at most 10 nM. As for `C[C@@H]1COCCN1c1cc(-c2ccc(NC(=O)C34CC5CC(CC(C5)C3)C4)cc2)c2cnn(-c3cc[nH]n3)c2n1` [Example 232], the IC50 at ATR enzyme lay within 10 to 50 nM.

Consider `COc1cc(-c2cc(N3CCOC[C@H]3C)nc3c2cnn3-c2cc[nH]n2)ncc1NC(=O)N1CCCC1` [Example 247], for which the IC50 at ATR enzyme lay in the range of 10 to 50 nM. Turning to `COc1cc(NC(=O)N2CCCC2)ncc1-c1cc(N2CCOC[C@H]2C)nc2c1cnn2-c1cc[nH]n1` [Example 248], the IC50 at ATR enzyme was 10 to 50 nM. For the compound `C[C@@H]1COCCN1c1cc(-c2ccc(NC(=O)N3CCCC3)cn2)c2cnn(-c3cc[nH]n3)c2n1` [Example 249], the IC50 on ATR enzyme was at most 10 nM. Same read-out and setting: under `C[C@@H]1COCCN1c1cc(-c2cc(NC(=O)C3CC3)[nH]n2)c2cnn(-c3cc[nH]n3)c2n1` [Example 253] stands 10 to 50 nM; under `C[C@@H]1COCCN1c1cc(N2CC(c3ccnn3C)C2)c2cnn(-c3cc[nH]n3)c2n1` [Example 266], 10 to 50 nM.

As for `C[C@@H]1COCCN1c1cc(N2CC(c3ccn(C)n3)C2)c2cnn(-c3cc[nH]n3)c2n1` [Example 267], the IC50 at ATR enzyme lay within 10 to 50 nM. Turning to `C[C@@H]1COCCN1c1cc(C2CN(C(=O)NC3CC3)C2)c2cnn(-c3cc[nH]n3)c2n1` [Example 268], the IC50 on ATR enzyme lay within 10 to 50 nM. Same read-out and setting: in the case of `C[C@@H]1COCCN1c1cc(C2CN(c3ccnn3C)C2)c2cnn(-c3cc[nH]n3)c2n1` [Example 269] it was at most 10 nM; in that of `C#CC1CCC(O)(c2cc(N3CCOC[C@H]3C)nc3c2cnn3-c2cc[nH]n2)C1` (stereo partly drawn) [Example 270], at most 10 nM.
